# Laboratory results taken from PMC8338929, “Acetylation turns leucine into a drug by membrane transporter switching” (Scientific Reports, 2021).
# Target: T1, Human OAT1 (SLC22A6) (Homo sapiens, UniProt Q4U2R8)
# T1 construct: host or cells: HEK-293
# T1 sequence (Q4U2R8 1-563): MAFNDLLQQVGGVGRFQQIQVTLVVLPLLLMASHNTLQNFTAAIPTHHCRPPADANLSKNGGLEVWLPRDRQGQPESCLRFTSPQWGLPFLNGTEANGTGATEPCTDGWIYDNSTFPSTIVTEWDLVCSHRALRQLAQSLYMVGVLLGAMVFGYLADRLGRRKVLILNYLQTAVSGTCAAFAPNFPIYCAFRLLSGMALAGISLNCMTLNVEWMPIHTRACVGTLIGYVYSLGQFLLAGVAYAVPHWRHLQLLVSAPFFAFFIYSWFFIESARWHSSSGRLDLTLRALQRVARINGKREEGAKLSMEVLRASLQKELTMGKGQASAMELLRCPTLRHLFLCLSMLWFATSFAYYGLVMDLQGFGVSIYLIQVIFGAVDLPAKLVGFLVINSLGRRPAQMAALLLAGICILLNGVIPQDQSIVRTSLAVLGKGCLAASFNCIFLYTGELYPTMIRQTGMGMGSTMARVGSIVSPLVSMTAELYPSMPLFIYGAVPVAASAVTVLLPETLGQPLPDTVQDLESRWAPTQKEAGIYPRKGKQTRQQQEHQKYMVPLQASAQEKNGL
# Test: Inhibition of OAT1 uptake of probe substrate chlorothiazide in HEK-293 cells
# Assay type: cell-based
# Conditions: probe chlorothiazide 3 µM; positive control diclofenac 100 µM
# Experimental: Cells were grown in DMEM (Gibco 4196, high glucose, without sodium pyruvate) supplemented with MEM non-essential amino acids and 10% fetal bovine serum. Cells were re-fed with fresh medium after attachment (4–6 h post-seeding). Cell were plated at a density of 4 × 10^5/well in 24-well plates coated with poly-D-lysine. Transporter assays were conducted in 400 µL of HBSS supplemented with 10 mM Hepes, pH 7.4
# The known probe substrates used as positive controls were 3 μM chlorothiazide for OAT1, 2 μM estrone-3-sulfate for OAT3, 10 µM [^3H]gabapentin for LAT1, 50 µM [^3H]Gly-Sar for PepT1, 500 µM thiophene-2-glyoxylic acid for MCT1. The known inhibitors used as controls for each transporter were 100 μM diclofenac for OAT1 and OAT3, 10 µM JPH203 for LAT1 and 200 µM losartan for PepT1. All incubations were in triplicate and contained 1% (OAT1 and OAT3) or 0.5% DMSO (LAT, PepT1 and MCT1). […]
# [I] is the inhibitor concentration and IC50 is the inhibitor concentration where the remaining activity is at the midpoint between the Top and Bottom. […] In inhibition experiments, the IC50 is not equivalent to affinity because it is dependent on the concentrations of the substrate, the inhibitor and affinity; therefore, we assumed competitive inhibition, and calculated affinity of inhibition (Ki) with the Cheng-Prusoff equation[49].
structure (smiles),measurement,value
CC(=O)N[C@@H](CC(C)C)C(=O)O [N-acetyl-L-leucine],IC50,6.2 mM
